12 compounds from ChEMBL document CHEMBL1201862, “PubChem BioAssay data set” (2004) can be followed below.

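Values below derive from 48-hour exposures of cells grown in 96-well plates, with endpoints linearly interpolated between the two concentrations bracketing the appropriate inhibition level. At the GI50, growth is halved.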 Active and inactive are the calls of the source. No stated cut-off is given here; in the data, active = GI50 up to about 1.1 µM and inactive = higher.

Among the test systems are ACHN; CAKI-1; HCC 2998; HCT-15; HL-60; HOP-92; KM12; M14; Malme-3M; NCI-H23; NCI-H460; OVCAR-5; SF-539; SNB-19; U-251; UO-31; MDA-N; OVCAR-4; BT-549.
Common to all, as to assay: inhibition of tumour cell growth, NCI panel, 48 h

Consider `CC(c1ccc2c(c1)CCC1C2CC2OC23CC=CC(=O)[C@]13C)C1C[C@]2(C)O[C@]2(C)[C@H](O)O1` (some centres not stated), for which the GI50 with ACHN was 33.7 µM (inactive); with CAKI-1 it was 7.64 µM (inactive); in the assay with HCC 2998, 83.4 µM (inactive); in the assay with HCT-15 it was 82.4 µM; in the assay on HL-60, 1.96 µM (inactive); in the assay on HOP-92, 92.9 µM (inactive). In addition, the GI50 in the assay with KM12 was 36.6 µM (inactive); in the assay with M14, 10.7 µM (inactive); in the assay with Malme-3M, 71.4 µM (inactive); with NCI-H23, 0.219 µM (active); with NCI-H460, 25.2 µM (inactive); in the assay on OVCAR-5 it was > 100 µM (inactive). The GI50 in the assay with SF-539 is 82.4 µM (inactive); with SNB-19, 15.9 µM (inactive); in the assay with U-251 it was 3.61 µM (inactive); in the assay on UO-31, 10.5 µM (inactive).

`O=C(Nc1ccccc1)C(=O)C(C(=O)c1ccccc1)C(c1ccccc1)c1ccccc1` (configuration not stated): the GI50 with CAKI-1 is > 10 µM (inactive); with HCC 2998, > 10 µM (inactive); in the assay on HCT-15, above 10 µM; in the assay with HL-60 it was > 10 µM (inactive); in the assay with HOP-92, > 10 µM (inactive); in the assay with M14 it was > 10 µM (inactive). The GI50 in the assay with MDA-N, in the assay with Malme-3M, with NCI-H23 and in the assay on OVCAR-4 was > 10 µM (inactive) in each case.

`N=C(N)SCc1ccc2c(c1)S(=O)(=O)c1ccccc1O2`: the GI50 in the assay on ACHN is 15.8 µM (inactive); in the assay with CAKI-1, 21.3 µM (inactive); in the assay on HCC 2998 it was 22.1 µM (inactive); in the assay on HCT-15, 25.8 µM; in the assay with HL-60, 14.9 µM (inactive); in the assay with HOP-92, 15.7 µM (inactive). The GI50 is 16.9 µM (inactive) in the assay with KM12; 20.5 µM (inactive) in the assay on M14; 17.7 µM (inactive) in the assay with MDA-N; 19.1 µM (inactive) with NCI-H23; 19.6 µM (inactive) in the assay with NCI-H460; 22.3 µM (inactive) with OVCAR-4. The GI50 was 22 µM (inactive) with OVCAR-5; 26.1 µM (inactive) in the assay on SF-539; 61.1 µM (inactive) in the assay on SNB-19; 18.1 µM (inactive) in the assay with U-251; 15.2 µM (inactive) in the assay on UO-31.

Consider `CN(C)CN1C(=O)S/C(=C2\C(=O)N(CN(C)C)c3ccccc32)C1=O`, for which the GI50 in the assay with ACHN is 43.7 µM (inactive); in the assay on BT-549, 45.1 µM (inactive); in the assay on CAKI-1, 32 µM (inactive); with HCC 2998, 26.8 µM (inactive); with HCT-15, 30.4 µM; in the assay on HL-60, 18.2 µM (inactive). Also, the GI50 is > 100 µM (inactive) in the assay with HOP-92; 41.5 µM (inactive) with KM12; 21.7 µM (inactive) with M14; 21.7 µM (inactive) in the assay on NCI-H23; 32.3 µM (inactive) with NCI-H460; 55.1 µM (inactive) in the assay on OVCAR-4. The GI50 in the assay on OVCAR-5 is > 100 µM (inactive); in the assay on SF-539, 40.6 µM (inactive); with SNB-19, 67.5 µM (inactive); in the assay with U-251, 40.6 µM (inactive); with UO-31, 31.3 µM (inactive).

Turning to `O=C1CCC[C@@H]2NC[C@@H](c3ccc4c(c3)OCO4)[C@H]12`, the GI50 is > 25 µM (inactive) in the assay on ACHN; > 25 µM (inactive) in the assay on CAKI-1; > 25 µM (inactive) in the assay with HCC 2998; above 25 µM in the assay with HCT-15; > 25 µM (inactive) with HL-60; > 25 µM (inactive) with HOP-92. Also, the GI50 in the assay on KM12, in the assay with M14, in the assay on MDA-N, in the assay on Malme-3M, with NCI-H23 and in the assay on NCI-H460 was > 25 µM (inactive) in each case. Moreover, the GI50 in the assay with OVCAR-4, with OVCAR-5, in the assay on SNB-19, in the assay on U-251 and in the assay on UO-31 was > 25 µM (inactive) each time.

In the case of `CC(=O)C1=C(C)N(c2ccc(C)cc2)C2(O)C=CC(=O)C3C(=O)N(c4ccccc4)C(=O)C132` (configuration not stated), the GI50 with ACHN is 15.9 µM (inactive); with BT-549 it was 17.4 µM (inactive); in the assay with CAKI-1 it was 18.6 µM (inactive); in the assay on HCC 2998, 22.5 µM (inactive); with HCT-15, 11.2 µM; with HL-60 it was 2.47 µM (inactive). The GI50 was 16.8 µM (inactive) in the assay with HOP-92; 21.9 µM (inactive) in the assay on KM12; 24.4 µM (inactive) in the assay with M14; 19.6 µM (inactive) in the assay with Malme-3M; 17.1 µM (inactive) with NCI-H23; 29.4 µM (inactive) with NCI-H460. The GI50 was 20.8 µM (inactive) with OVCAR-4; 55.2 µM (inactive) in the assay on OVCAR-5; 24.4 µM (inactive) in the assay on SF-539; 25.2 µM (inactive) in the assay on SNB-19; 17.7 µM (inactive) in the assay with U-251; 11.2 µM (inactive) with UO-31.

Regarding `CC(=O)O[C@H]1/C(=C/c2ccncc2)C[C@H]2[C@@H]3CC=C4C[C@@H](N5CCCC5)CC[C@]4(C)[C@H]3CC[C@]12C`, the GI50 in the assay on ACHN was 14.1 µM (inactive); in the assay with BT-549, 20.5 µM (inactive); in the assay with CAKI-1 it was 14 µM (inactive); with HCC 2998, 12.2 µM (inactive); in the assay on HCT-15, 10.1 µM; with HL-60, 8.38 µM (inactive). Moreover, the GI50 with HOP-92 was 4.24 µM (inactive); in the assay with KM12 it was 11.9 µM (inactive); with M14, 9.35 µM (inactive); in the assay on Malme-3M, 13 µM (inactive); in the assay on NCI-H23, 15.1 µM (inactive); with NCI-H460, 10.8 µM (inactive). Moreover, the GI50 in the assay with OVCAR-4 was 15.9 µM (inactive); in the assay on OVCAR-5, 13.2 µM (inactive); in the assay with SF-539, 18.6 µM (inactive); in the assay on SNB-19 it was 16.9 µM (inactive); in the assay on U-251 it was 11.5 µM (inactive); in the assay on UO-31 it was 4.99 µM (inactive).

For `CN(C)/N=N/c1nc2c(c(=O)n(C)c(=O)n2C)n1C`, the GI50 in the assay on ACHN was > 100 µM (inactive); in the assay on BT-549, > 100 µM (inactive); in the assay on CAKI-1, > 100 µM (inactive); with HCC 2998 it was > 100 µM (inactive); with HCT-15, above 100 µM; in the assay with KM12, > 100 µM (inactive). The GI50 in the assay with M14, in the assay with MDA-N, with Malme-3M, in the assay with NCI-H460, in the assay on OVCAR-4 and in the assay on OVCAR-5 was > 100 µM (inactive) each time. The GI50 with SNB-19, in the assay with U-251 and with UO-31 was > 100 µM (inactive) in each case.

As for `CCN(CC)CCCNc1ccc([N+](=O)[O-])c2nc3ccc(OC)cc3c(N)c12`, the GI50 in the assay on ACHN is > 6.67 µM (inactive); in the assay with BT-549, 1.53 µM (inactive); in the assay with CAKI-1, > 10 µM (inactive); in the assay with HCT-15, 1.72 µM; in the assay with HL-60, 1.94 µM (inactive); with HOP-92, > 3.65 µM (inactive). Besides, the GI50 with KM12 is 1.57 µM (inactive); with M14 it was > 4.41 µM (inactive); in the assay on Malme-3M it was > 10 µM (inactive); with NCI-H23 it was 2.29 µM (inactive); with NCI-H460 it was 1.82 µM (inactive); in the assay with OVCAR-4, 1.92 µM (inactive). Besides, the GI50 in the assay with OVCAR-5 was > 10 µM (inactive); in the assay with SF-539 it was 1.85 µM (inactive); in the assay on SNB-19 it was > 4.34 µM (inactive); with U-251, > 10 µM (inactive); with UO-31, > 5.58 µM (inactive).

As for `CS(=O)(=O)OCCN(CCOS(C)(=O)=O)c1ccc(/C=N/c2ccc(-c3csc(Cc4ccccc4)n3)cc2)c(Cl)c1`, the GI50 is 30.7 µM (inactive) in the assay with ACHN; 1.23 µM (inactive) in the assay on CAKI-1; 10.9 µM (inactive) with HCC 2998; 30.3 µM in the assay on HCT-15; 11.1 µM (inactive) in the assay on HL-60; 0.596 µM (active) in the assay on HOP-92. Moreover, the GI50 with KM12 was 28.6 µM (inactive); in the assay with M14, 25.3 µM (inactive); with MDA-N, 21.6 µM (inactive); in the assay with Malme-3M, 37.1 µM (inactive); in the assay with NCI-H23 it was 23.5 µM (inactive); with NCI-H460, 0.387 µM (active). Moreover, the GI50 in the assay with OVCAR-4 was 31.7 µM (inactive); in the assay on OVCAR-5, 5.01 µM (inactive); in the assay with SF-539 it was 22.8 µM (inactive); with SNB-19 it was > 45.3 µM (inactive); in the assay on U-251 it was 28.2 µM (inactive); in the assay on UO-31, 26.4 µM (inactive).

On to `Cc1c(CN2CCN(C)CC2)c(CN2CCN(C)CC2)c(C)n1-c1ccc(Cl)cc1`, for which the GI50 in the assay on ACHN was 96.8 µM (inactive); in the assay on BT-549 it was 45 µM (inactive); in the assay with CAKI-1, 25.1 µM (inactive); with HCC 2998, 39.7 µM (inactive); in the assay on HCT-15 it was 47 µM; in the assay on KM12, 34 µM (inactive). For the same compound, the GI50 with M14 is 14.6 µM (inactive); in the assay on MDA-N it was 21 µM (inactive); with Malme-3M, 20.9 µM (inactive); in the assay on NCI-H23, 54.2 µM (inactive); in the assay on NCI-H460, 50.7 µM (inactive); in the assay on OVCAR-4, 79.1 µM (inactive). The GI50 with OVCAR-5 is 53.7 µM (inactive); in the assay on SNB-19 it was > 100 µM (inactive); in the assay on U-251, 40.2 µM (inactive); in the assay on UO-31, 26.9 µM (inactive).

Turning to `O=C(/C=C/c1ccc(Cl)cc1)Oc1ccc(/C=C2\CCCCC2=O)cc1`, the GI50 was > 100 µM (inactive) in the assay with ACHN; > 100 µM (inactive) in the assay on CAKI-1; > 100 µM (inactive) in the assay with HCC 2998; above 100 µM with HCT-15; 50.7 µM (inactive) in the assay with HL-60; > 100 µM (inactive) with HOP-92. Moreover, the GI50 with KM12, in the assay on M14, in the assay with MDA-N, in the assay on Malme-3M, in the assay with NCI-H23 and with NCI-H460 was > 100 µM (inactive) each time. Also, the GI50 is > 100 µM (inactive) in the assay with OVCAR-4; > 100 µM (inactive) in the assay on OVCAR-5; > 100 µM (inactive) in the assay on SF-539; > 10 µM (inactive) in the assay on SNB-19; > 100 µM (inactive) in the assay with U-251; > 100 µM (inactive) in the assay with UO-31.
